Assay results: US9012655B2, “Antimicrobial/adjuvant compounds and methods” (Denouamed, Inc., priority 2011, dated 2015)
In brackets after ≈: the same amount, converted by molar mass.

Key:
Test in all cases: MIC panel of challenge pathogens (CLSI)
Format in all cases: cell-based
[1] = test system: Enterococcus faecium ATCC700221; conditions: Enterococcus faecium ATCC700221; for MIC: read-out: 100% inhibition; for MIC50: read-out: MIC50 (50%); for MIC80: read-out: MIC80 (80%)
Experimental: (§1) The inocula for each bacterial strain were prepared by picking 5-10 distinct colonies from the culture plates and suspending them in the appropriate broth as per Clinical and Laboratory Standards Institute (CLSI) guidelines M07-A8, M24-A or M11-A7 as appropriate. The inoculum was resuspended by vigorous shaking on a vortex mixer for 15 s. The turbidity was then adjusted to McFarland standard 0.5 ([…]). The inoculum was further diluted in the appropriate media for MIC tests to give a final inoculum in each well of 2-8×10^5 CFU/ml. MICs were tested in the appropriate broth in accordance with the appropriate CLSI guidelines.
(§2) A stock solution of each compound was prepared at a concentration of 1.28 g/L in DMSO. The stock was further diluted in the appropriate media to give a top starting concentration of 128 mg/L in the assay. 100 μL of the appropriate media, as per CLSI guidelines, was dispensed into each well in columns 2-12. 200 μL of the each compound solution (at 256 mg/L) was dispensed into each well in column 1. 100 μL aliquots were pipetted from column 1 wells and dispensed into column 2 with a multichannel pipette (±2% coefficient of variation) thus diluting two-fold. 100 μL samples were then pipetted from column 2 wells and dispensed into column 3. The process was repeated through to column 10. The final 100 μL of diluted drug from column 10 was then discarded. Row 11 acted as a positive control (no compound, but organisms added), Row 12 acted as a negative control (no compound, and no organisms added).
(§3) 100 μL of the appropriate inoculum suspension in the appropriate media, as per CLSI guidelines, was added to the appropriate wells. […] All plates were incubated in the dark under aerobic or anaerobic conditions at 30-37° C. for 24-48 hours, according to the appropriate CLSI guideline. Plates were read visually 24-48 hours post inoculation. Endpoints of 100% inhibition were determined (CLSI interpretation endpoints following visual examination).
(§4) MIC50, MIC80, and 100% inhibition results are reported below in μg/mL in the following Tables, indicating each compound tested against a given species and strain: […]

[2] = test system: Enterococcus faecalis ATCC29212; conditions: Enterococcus faecalis ATCC29212; for MIC: read-out: 100% inhibition; for MIC50: read-out: MIC50 (50%); for MIC80: read-out: MIC80 (80%)
Experimental: as §1, §2, §3, §4

[3] = test system: Staphylococcus aureus AUR59 7005; conditions: AUR597005, Staphylococcus aureus AUR59 7005; for MIC: read-out: 100% inhibition; for MIC50: read-out: MIC50 (50%); for MIC80: read-out: MIC80 (80%)
Experimental: as §1, §2, §3, §4

[4] = test system: Staphylococcus aureus AUR60 7005; conditions: AUR607005, Staphylococcus aureus AUR60 7005; for MIC: read-out: 100% inhibition; for MIC50: read-out: MIC50 (50%); for MIC80: read-out: MIC80 (80%)
Experimental: as §1, §2, §3, §4

[5] = test system: Staphylococcus epidermidis NRS7; conditions: Staphylococcus epidermidis NRS7; for MIC: read-out: 100% inhibition; for MIC50: read-out: MIC50 (50%); for MIC80: read-out: MIC80 (80%)
Experimental: as §1, §2, §3, §4

[6] = test system: Staphylococcus aureus AUR131 007035; conditions: AUR131007035, Staphylococcus aureus AUR131 007035; for MIC: read-out: 100% inhibition; for MIC50: read-out: MIC50 (50%); for MIC80: read-out: MIC80 (80%)
Experimental: as §1, §2, §3, §4

[7] = test system: Staphylococcus aureus NRS2 (ATCC700698); conditions: Staphylococcus aureus NRS2 (ATCC700698); for MIC: read-out: 100% inhibition; for MIC50: read-out: MIC50 (50%); for MIC80: read-out: MIC80 (80%)
Experimental: as §1, §2, §3, §4

[8] = test system: Staphylococcus aureus NRS1 (ATCC700699); conditions: Staphylococcus aureus NRS1 (ATCC700699); for MIC: read-out: 100% inhibition; for MIC50: read-out: MIC50 (50%); for MIC80: read-out: MIC80 (80%)
Experimental: as §1, §2, §3, §4

[9] = test system: Staphylococcus epidermidis NRS122; conditions: Staphylococcus epidermidis NRS122; for MIC: read-out: 100% inhibition; for MIC50: read-out: MIC50 (50%); for MIC80: read-out: MIC80 (80%)
Experimental: as §1, §2, §3, §4

[10] = test system: Staphylococcus aureus NRS383; conditions: Staphylococcus aureus NRS383; for MIC: read-out: 100% inhibition; for MIC50: read-out: MIC50 (50%); for MIC80: read-out: MIC80 (80%)
Experimental: as §1, §2, §3, §4

[11] = test system: Staphylococcus aureus NRS384; conditions: Staphylococcus aureus NRS384; for MIC: read-out: 100% inhibition; for MIC50: read-out: MIC50 (50%); for MIC80: read-out: MIC80 (80%)
Experimental: as §1, §2, §3, §4

MIC [1] | MIC50 [1] | MIC80 [1] | MIC [2] | MIC50 [2] | MIC80 [2] | MIC [3] | MIC50 [3] | MIC80 [3] | MIC [4] | MIC50 [4] | MIC80 [4] | MIC [5] | MIC50 [5] | MIC80 [5] | MIC [6] | MIC50 [6] | MIC80 [6] | MIC [7] | MIC50 [7] | Structure (SMILES) | also measured
0.5 µg/mL (≈ 1.15 µM) | 0.25 µg/mL (≈ 0.577 µM) | 0.25 µg/mL (≈ 0.577 µM) | 0.5 µg/mL (≈ 1.15 µM) | 0.5 µg/mL (≈ 1.15 µM) | 0.5 µg/mL (≈ 1.15 µM) | 0.5 µg/mL (≈ 1.15 µM) | 0.25 µg/mL (≈ 0.577 µM) | 0.25 µg/mL (≈ 0.577 µM) | 0.5 µg/mL (≈ 1.15 µM) | 0.5 µg/mL (≈ 1.15 µM) | 0.5 µg/mL (≈ 1.15 µM) | 1 µg/mL (≈ 2.31 µM) | 1 µg/mL (≈ 2.31 µM) | 1 µg/mL (≈ 2.31 µM) | ≤ 0.25 µg/mL | ≤ 0.25 µg/mL | ≤ 0.25 µg/mL | 0.5 µg/mL (≈ 1.15 µM) | 0.25 µg/mL (≈ 0.577 µM) | CC(C)c1cc(Cl)ccc1-c1cc(C(=O)O)sc1-c1ccc(Cl)cc1C(C)C [DNM0566, 4,5-Bis(4-chloro-2-isopropylphenyl)thiophene-2-carboxylic acid] | MIC80 [7]: 0.5 µg/mL (≈ 1.15 µM); MIC [8]: ≤ 0.25 µg/mL; MIC50 [8]: ≤ 0.25 µg/mL; MIC80 [8]: ≤ 0.25 µg/mL; MIC [9]: 2 µg/mL (≈ 4.61 µM); MIC50 [9]: 1 µg/mL (≈ 2.31 µM); MIC80 [9]: 2 µg/mL (≈ 4.61 µM); MIC [10]: ≤ 0.25 µg/mL; MIC50 [10]: ≤ 0.25 µg/mL; MIC80 [10]: ≤ 0.25 µg/mL; MIC [11]: 0.5 µg/mL (≈ 1.15 µM); MIC50 [11]: 0.5 µg/mL (≈ 1.15 µM); MIC80 [11]: 0.5 µg/mL (≈ 1.15 µM)
1 µg/mL (≈ 2.45 µM) | 1 µg/mL (≈ 2.45 µM) | 1 µg/mL (≈ 2.45 µM) | 1 µg/mL (≈ 2.45 µM) | 1 µg/mL (≈ 2.45 µM) | 1 µg/mL (≈ 2.45 µM) | 0.5 µg/mL (≈ 1.22 µM) | 0.5 µg/mL (≈ 1.22 µM) | 0.5 µg/mL (≈ 1.22 µM) | 0.5 µg/mL (≈ 1.22 µM) | 0.5 µg/mL (≈ 1.22 µM) | 0.5 µg/mL (≈ 1.22 µM) | 1 µg/mL (≈ 2.45 µM) | 0.5 µg/mL (≈ 1.22 µM) | 0.5 µg/mL (≈ 1.22 µM) | 0.5 µg/mL (≈ 1.22 µM) | 0.5 µg/mL (≈ 1.22 µM) | 0.5 µg/mL (≈ 1.22 µM) | 0.5 µg/mL (≈ 1.22 µM) | 0.5 µg/mL (≈ 1.22 µM) | CCCCc1cccc(-c2cc(-c3nnn[nH]3)sc2Cc2ccc(Cl)cc2)c1 [DNM0606, 5-(4-(3-Butylphenyl)-5-(4-chlorobenzyl)thiophen-2-yl)-1H-tetrazole] | MIC80 [7]: 0.5 µg/mL (≈ 1.22 µM); MIC [8]: 0.5 µg/mL (≈ 1.22 µM); MIC50 [8]: 0.5 µg/mL (≈ 1.22 µM); MIC80 [8]: 0.5 µg/mL (≈ 1.22 µM); MIC [9]: 4 µg/mL (≈ 9.78 µM); MIC50 [9]: 2 µg/mL (≈ 4.89 µM); MIC80 [9]: 4 µg/mL (≈ 9.78 µM); MIC [10]: ≤ 0.25 µg/mL; MIC50 [10]: ≤ 0.25 µg/mL; MIC80 [10]: ≤ 0.25 µg/mL; MIC [11]: ≤ 0.25 µg/mL; MIC50 [11]: ≤ 0.25 µg/mL; MIC80 [11]: ≤ 0.25 µg/mL
